Read-outs that look alike come from different tables or passages of the source.
Key:
HIV-1 IIIB = experiment: GenPhar AV-Finder-HIV Drug Discovery Assay, HIV-1 IIIB replication in HeLa indicator cells; format: cell-based; details: for IC50: read-out: IC50 of HIV replication inhibition
From the text: In order to study the viral replication in vitro, the GenPhar AV-Finder™-HIV Drug Discovery Assay was used, a novel technology that consists of two components: (1) a cloned, continuous-passage HeLa cell line containing an HIV-1 tat-activated molecular switch and a Green Fluorescent Protein reporter gene and (2) a recombinant adenovirus (rAd) vector containing the genes for all three of the HIV-1 receptor/co-receptors (CD4, CXCR4, and CCR5) to transduce into HeLa cells and convert them into highly susceptible HIV-1 indicator cells for use in the assay. The indicator cells over-express the HIV-1 receptor genes and are readily infected with any HIV-1 strain or isolate. […] Infected cells fluoresce brightly so that the inhibition of virus replication by potential antiviral drugs can be readily detected and quantified using standard laboratory plate reader technology.
(§1) Detector plates are set up at day 1 by adding HeLa cells (3000/well) to the adenovirus AD-3R in DMEM containing CCS in 96-well plates and incubated at 37° C. under 95% humidity and 5% CO2 for 2 days. […] At day 4, the medium was replaced by fresh medium containing the corresponding concentration of the compounds of interest. The infectivity was assessed by measuring the fluorescence on each well at day 7 ([…]). […] At day 5, the medium was replaced by fresh medium containing the corresponding concentration of compounds of interest and the infectivity was assessed by measuring the fluorescence on each well at day 8. Results are expressed as percentage of inhibition of the viral replication.
(4-amino-phenyl)-(1-aza-bicyclo[2.2.2]oct-4-yl)-methanone (FIG. 1) was used either alone dissolved in water (SP003) or in an aqueous formulation (SP003A) containing zinc sulfate heptahydrate and ascorbic acid at the ratio of 26.6/1/1.6 (for example 200 mg SP003 with 7.5 mg of zinc sulfate heptahydrate and 12.5 mg of ascorbic acid; Xu, J. et al., J. Pharmacol. Exper. Ther., (2003) 307:1148-1157.

HIV MDR 769 strain = experiment: AV-Finder-HIV assay, multi-drug resistant HIV MDR 769 strain replication in HeLa cells; format: cell-based
From the text: In order to study the viral replication in vitro, the GenPhar AV-Finder™-HIV Drug Discovery Assay was used, a novel technology that consists of two components: (1) a cloned, continuous-passage HeLa cell line containing an HIV-1 tat-activated molecular switch and a Green Fluorescent Protein reporter gene and (2) a recombinant adenovirus (rAd) vector containing the genes for all three of the HIV-1 receptor/co-receptors (CD4, CXCR4, and CCR5) to transduce into HeLa cells and convert them into highly susceptible HIV-1 indicator cells for use in the assay. The indicator cells over-express the HIV-1 receptor genes and are readily infected with any HIV-1 strain or isolate. All HIV-1 strains tested thus far, regardless of co-receptor preference, and all subtypes or classes of HIV-1 will infect these indicator cells. Infected cells fluoresce brightly so that the inhibition of virus replication by potential antiviral drugs can be readily detected and quantified using standard laboratory plate reader technology.
as §1

HeLa cells = experiment: MTT cytotoxicity assay (mitochondrial integrity)
Method: Following the above described cell treatment protocol, the levels of cellular 3-(4,5-dimehtylthiazol-2-yl)-2,5-diphenyl tetrazolium bromide (MTT) reduction, a measure of mitochondrial integrity, were determined in order to examine whether the compounds tested were cytotoxic.

Cc1cn([C@H]2C[C@H](N=[N+]=[N-])[C@@H](CO)O2)c(=O)[nH]c1=O [AZT, reference compound]
curve plateau, inhibition of viral replication (HIV-1 IIIB; 24 hours pre-medication): around 40% | IC50 (HIV-1 IIIB; 48 hours pretreatment, FIG. 4): 30 nM | inhibition of HIV MDR 769 strain replication (in words) (HIV MDR 769 strain; without pre-medication, FIG. 5): not effective | IC50 (HeLa cells; read-out: toxicity IC50 (MTT cytotoxicity assay)): 161000 nM

Nc1ccc(C(=O)C23CCN(CC2)CC3)cc1 [SP003, (4-Amino-phenyl)-(1-aza-bicyclo[2.2.2]oct-4-yl)-methanone]
inhibition of HIV replication (HIV-1 IIIB; 48 hours pretreatment, FIG. 4): 50% | IC50 (HIV-1 IIIB; Human immunodeficiency virus 1, IIIB, HeLa, 48 hours pretreatment, FIG. 4): 0.03 nM | inhibition of HIV-1 IIIB viral replication (in words) (HIV-1 IIIB; no pre-medication, HeLa cells, FIG. 2): higher efficiency than the classical antiviral agent ddI | inhibition of HIV-1 IIIB replication (HIV-1 IIIB; no pre-medication, concentrations in the nanomolar range): up to 50% | IC50 (HIV MDR 769 strain; Human immunodeficiency virus 1, HeLa, read-out: IC50 of HIV MDR 769 viral replication inhibition): 0.01 nM | inhibition of HIV MDR 769 viral replication (HIV MDR 769 strain; without pre-medication, FIG. 5): 60% | cell toxicity (MTT cytotoxicity assay) (HeLa cells; all concentrations tested, up to 100 μM): devoid of cell toxicity

O=c1[nH]cnc2c1ncn2[C@H]1CC[C@@H](CO)O1 [ddI]
IC50 (HeLa cells): 89000 nM

From US20080194619A1, “Anti-Hiv Quinuclidine Compounds” (priority 2004, published 2008)
